In PubChem BioAssay AID1919008 (Molecular Pharmacology Branch, DTP, NCI, 2023):

Tested on: DMS-114 complex spheroids with HUVEC/MSC, growth % test/control
Experiment: Anticancer human tumor DMS-114 cell line growth inhibition [AhR];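 note: spheroids exposed to agents for 7 days before readout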;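 for viability, T/C: 100% = DMSO vehicle control wells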
Details: for IC50: curve of first compound; for viability, T/C: stronger effect = lower value
In short: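 Agents were dosed in half-log steps down from roughly clinical Cmax, or from 10 microM where Cmax was unknown, alone and with AhR antagonists. Read-out: percent test/control growth of tumor spheroids containing HUVEC and MSC stromal cells.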

[1] = second compound 0.1 µM, first compound 0.00949 µM
[2] = second compound 0.1 µM, first compound 0.03 µM
[3] = second compound 0.1 µM, first compound 0.0949 µM
[4] = second compound 0.1 µM, first compound 0.3 µM
[5] = second compound 0.1 µM, first compound 0.949 µM
[6] = second compound 0.1 µM, first compound 3 µM
[7] = second compound 0.316 µM, first compound 0.00949 µM
[8] = second compound 0.316 µM, first compound 0.03 µM
[9] = second compound 0.316 µM, first compound 0.0949 µM
[10] = second compound 0.316 µM, first compound 0.3 µM
[11] = second compound 0.316 µM, first compound 0.949 µM
[12] = second compound 0.316 µM, first compound 3 µM
[13] = second compound 1 µM, first compound 0.00949 µM
[14] = second compound 1 µM, first compound 0.03 µM
[15] = second compound 1 µM, first compound 0.0949 µM
[16] = second compound 1 µM, first compound 0.3 µM
[17] = second compound 1 µM, first compound 0.949 µM
[18] = second compound 1 µM, first compound 3 µM
[19] = second compound 3.16 µM, first compound 0.00949 µM
[20] = second compound 3.16 µM, first compound 0.03 µM
[21] = second compound 3.16 µM, first compound 0.0949 µM
[22] = second compound 3.16 µM, first compound 0.3 µM
[23] = second compound 3.16 µM, first compound 0.949 µM
[24] = second compound 3.16 µM, first compound 3 µM
[25] = second compound 10 µM, first compound 0.00949 µM
[26] = second compound 10 µM, first compound 0.03 µM
[27] = second compound 10 µM, first compound 0.0949 µM
[28] = second compound 10 µM, first compound 0.3 µM
[29] = second compound 10 µM, first compound 0.949 µM
[30] = second compound 10 µM, first compound 3 µM

CC1COCCN1c1cc(C2(S(C)(=N)=O)CC2)nc(-c2ccnc3[nH]ccc23)n1 (stereo not given) + Cc1ccccc1N=Nc1ccc(NC(=O)c2ccnn2C)c(C)c1
IC50 (second compound 0.1 µM): > 10000 nM
IC50 (second compound 0.316 µM): > 10000 nM
IC50 (second compound 1 µM): > 10000 nM
IC50 (second compound 3.16 µM): > 10000 nM
IC50 (second compound 10 µM): > 10000 nM
viability, T/C (second compound 0.1 µM, first compound 0.0316 µM): 107%
viability, T/C (second compound 0.1 µM, first compound 0.1 µM): 100%
viability, T/C (second compound 0.1 µM, first compound 0.316 µM): 104%
viability, T/C (second compound 0.1 µM, first compound 1 µM): 109%
viability, T/C (second compound 0.1 µM, first compound 3.16 µM): 106%
viability, T/C (second compound 0.1 µM, first compound 10 µM): 77.6%
viability, T/C (second compound 0.316 µM, first compound 0.0316 µM): 102%
viability, T/C (second compound 0.316 µM, first compound 0.1 µM): 98.1%
viability, T/C (second compound 0.316 µM, first compound 0.316 µM): 103%
viability, T/C (second compound 0.316 µM, first compound 1 µM): 103%
viability, T/C (second compound 0.316 µM, first compound 3.16 µM): 92.5%
viability, T/C (second compound 0.316 µM, first compound 10 µM): 74.1%
viability, T/C (second compound 1 µM, first compound 0.0316 µM): 95.5%
viability, T/C (second compound 1 µM, first compound 0.1 µM): 94.5%
viability, T/C (second compound 1 µM, first compound 0.316 µM): 90.6%
viability, T/C (second compound 1 µM, first compound 1 µM): 102%
viability, T/C (second compound 1 µM, first compound 3.16 µM): 102%
viability, T/C (second compound 1 µM, first compound 10 µM): 71.5%
viability, T/C (second compound 3.16 µM, first compound 0.0316 µM): 93.3%
viability, T/C (second compound 3.16 µM, first compound 0.1 µM): 90.5%
viability, T/C (second compound 3.16 µM, first compound 0.316 µM): 99.3%
viability, T/C (second compound 3.16 µM, first compound 1 µM): 95.4%
viability, T/C (second compound 3.16 µM, first compound 3.16 µM): 94.2%
viability, T/C (second compound 3.16 µM, first compound 10 µM): 68%
viability, T/C (second compound 10 µM, first compound 0.0316 µM): 95.7%
viability, T/C (second compound 10 µM, first compound 0.1 µM): 90.7%
viability, T/C (second compound 10 µM, first compound 0.316 µM): 96.2%
viability, T/C (second compound 10 µM, first compound 1 µM): 89.6%
viability, T/C (second compound 10 µM, first compound 3.16 µM): 86.1%
viability, T/C (second compound 10 µM, first compound 10 µM): 63.1%

CCN(c1cc(-c2ccc(CN3CCOCC3)cc2)cc(C(=O)NCc2c(C)cc(C)[nH]c2=O)c1C)C1CCOCC1 + Cc1ccccc1N=Nc1ccc(NC(=O)c2ccnn2C)c(C)c1
IC50 (second compound 0.1 µM): > 3000 nM
IC50 (second compound 0.316 µM): > 3000 nM
IC50 (second compound 1 µM): > 3000 nM
IC50 (second compound 3.16 µM): > 3000 nM
IC50 (second compound 10 µM): > 3000 nM
viability, T/C [1]: 97.5%
viability, T/C [2]: 105%
viability, T/C [3]: 111%
viability, T/C [4]: 114%
viability, T/C [5]: 101%
viability, T/C [6]: 102%
viability, T/C [7]: 105%
viability, T/C [8]: 101%
viability, T/C [9]: 104%
viability, T/C [10]: 113%
viability, T/C [11]: 108%
viability, T/C [12]: 100%
viability, T/C [13]: 108%
viability, T/C [14]: 101%
viability, T/C [15]: 110%
viability, T/C [16]: 110%
viability, T/C [17]: 112%
viability, T/C [18]: 98.8%
viability, T/C [19]: 108%
viability, T/C [20]: 104%
viability, T/C [21]: 110%
viability, T/C [22]: 102%
viability, T/C [23]: 107%
viability, T/C [24]: 105%
viability, T/C [25]: 106%
viability, T/C [26]: 104%
viability, T/C [27]: 102%
viability, T/C [28]: 108%
viability, T/C [29]: 103%
viability, T/C [30]: 102%

Nc1ncn(C2CC(O)C(CO)S2)c(=O)n1 (stereo not given) + Cc1ccccc1N=Nc1ccc(NC(=O)c2ccnn2C)c(C)c1
IC50 (second compound 0.1 µM): > 300 nM
IC50 (second compound 0.316 µM): > 300 nM
IC50 (second compound 1 µM): > 300 nM
IC50 (second compound 3.16 µM): > 300 nM
IC50 (second compound 10 µM): > 300 nM
viability, T/C (second compound 0.1 µM, first compound 0.000949 µM): 94.1%
viability, T/C (second compound 0.1 µM, first compound 0.003 µM): 96.7%
viability, T/C [1]: 106%
viability, T/C [2]: 101%
viability, T/C [3]: 98.6%
viability, T/C [4]: 88.6%
viability, T/C (second compound 0.316 µM, first compound 0.000949 µM): 94.9%
viability, T/C (second compound 0.316 µM, first compound 0.003 µM): 96.3%
viability, T/C [7]: 103%
viability, T/C [8]: 105%
viability, T/C [9]: 111%
viability, T/C [10]: 95.5%
viability, T/C (second compound 1 µM, first compound 0.000949 µM): 101%
viability, T/C (second compound 1 µM, first compound 0.003 µM): 102%
viability, T/C [13]: 99.2%
viability, T/C [14]: 105%
viability, T/C [15]: 117%
viability, T/C [16]: 98.9%
viability, T/C (second compound 3.16 µM, first compound 0.000949 µM): 113%
viability, T/C (second compound 3.16 µM, first compound 0.003 µM): 93.4%
viability, T/C [19]: 96.9%
viability, T/C [20]: 105%
viability, T/C [21]: 91.7%
viability, T/C [22]: 91.3%
viability, T/C (second compound 10 µM, first compound 0.000949 µM): 99.4%
viability, T/C (second compound 10 µM, first compound 0.003 µM): 97.3%
viability, T/C [25]: 92.3%
viability, T/C [26]: 94.3%
viability, T/C [27]: 91.7%
viability, T/C [28]: 74.7%

O=C(C=Cn1cnc(-c2cc(C(F)(F)F)cc(C(F)(F)F)c2)n1)NNc1cnccn1 + Cc1ccccc1N=Nc1ccc(NC(=O)c2ccnn2C)c(C)c1
IC50 (second compound 0.1 µM): 827 nM
IC50 (second compound 0.316 µM): 806 nM
IC50 (second compound 1 µM): 906 nM
IC50 (second compound 3.16 µM): 877 nM
IC50 (second compound 10 µM): 987 nM
viability, T/C [1]: 111%
viability, T/C [2]: 114%
viability, T/C [3]: 124%
viability, T/C [4]: 93.4%
viability, T/C [5]: 45%
viability, T/C [6]: 18.2%
viability, T/C [7]: 95.8%
viability, T/C [8]: 125%
viability, T/C [9]: 127%
viability, T/C [10]: 89.1%
viability, T/C [11]: 45.2%
viability, T/C [12]: 17.4%
viability, T/C [13]: 100%
viability, T/C [14]: 124%
viability, T/C [15]: 144%
viability, T/C [16]: 91.6%
viability, T/C [17]: 51.8%
viability, T/C [18]: 20.6%
viability, T/C [19]: 99.7%
viability, T/C [20]: 110%
viability, T/C [21]: 124%
viability, T/C [22]: 88%
viability, T/C [23]: 48.9%
viability, T/C [24]: 21.9%
viability, T/C [25]: 98.5%
viability, T/C [26]: 91.5%
viability, T/C [27]: 95.5%
viability, T/C [28]: 75.6%
viability, T/C [29]: 51.5%
viability, T/C [30]: 30.4%
